Patent US5919756A, “Amides” (Eli Lilly and Company, priority 1997, dated 1999)

Experiments:
Type in all cases: cell-based
[1] = test system: Staphylococcus haemolyticus 415; assay: Broth micro-dilution MIC, SH 415; conditions: unit assumed
Description: (§1) The antibacterial efficacy of the present compounds is illustrated in TABLE 2. The minimal inhibitory concentrations (MICs) were determined using a standard broth micro-dilution assay.

[2] = test system: Enterococcus, Resistant (4-6 isolates); assay: Enterococcus screen, broth micro-dilution MIC, resistant isolates; set-up: unit not given here; conditions: mean of 4-6 isolates
Description: as §1

[3] = test system: Staphylococcus aureus 447; assay: Broth micro-dilution MIC, SA 447; conditions: unit assumed
Description: as §1

[4] = test system: Staphylococcus epidermis 270; assay: Broth micro-dilution MIC, SE 270; conditions: unit assumed
Description: as §1

[5] = test system: Staphylococcus aureus 446; assay: Broth micro-dilution MIC, SA 446; conditions: unit assumed
Description: as §1

[6] = test system: Staphylococcus haemolyticus 105; assay: Broth micro-dilution MIC, SH 105; conditions: unit assumed
Description: as §1

[7] = test system: Enterococcus, Sensitive (4-6 isolates); assay: Enterococcus screen, broth micro-dilution MIC, sensitive isolates; set-up: unit not given here; conditions: mean of 4-6 isolates
Description: as §1

[8] = test system: Staphylococcus aureus 489; assay: Broth micro-dilution MIC, SA 489; conditions: unit assumed
Description: as §1

[9] = test system: Streptococcus pneumoniae P1; assay: Broth micro-dilution MIC, S PN P1; conditions: unit assumed
Description: as §1

[10] = test system: Streptococcus pyogenes 203; assay: Broth micro-dilution MIC, S PY 203; conditions: unit assumed
Description: as §1

Compound | MIC, SH415 [1] | Minimum Inhibitory Concentrations (MICs), Mean Values of 4-6 Isolates, Resistant [2] | MIC, SA 447 [3] | MIC, SE270 [4] | MIC, SA 446 [5] | MIC, SH105 [6] | Minimum Inhibitory Concentrations (MICs), Mean Values of 4-6 Isolates, Sensitive [7] | MIC, SA 489 [8] | MIC, S PN P1 [9] | MIC, S PY 203 [10]
CNC(CC(C)C)C(=O)NC1C(=O)NC(CC(N)=O)C(=O)NC2C(=O)NC3C(=O)NC(C(=O)NC(C(=O)NCCc4ccccc4)c4cc(O)cc(O)c4-c4cc3ccc4O)C(OC3CC(C)(N)C(O)C(C)O3)c3ccc(c(Cl)c3)Oc3cc2cc(c3OC2OC(CO)C(O)C(O)C2OC2CC(C)(N)C(O)C(C)O2)Oc2ccc(cc2Cl)C1O.O=C(O)C(F)(F)F (stereo not shown) [Example 16, A82846B, phenethylamide, trifluoroacetate salt] | 0.125 µg/mL | 16 | ≤ 0.06 µg/mL | ≤ 0.06 µg/mL | 0.125 µg/mL | ≤ 0.06 µg/mL | 0.25 | ≤ 0.06 µg/mL | ≤ 0.06 µg/mL | –
CNC(CC(C)C)C(=O)NC1C(=O)NC(CC(N)=O)C(=O)NC2C(=O)NC3C(=O)NC(C(=O)NC(C(=O)NCCc4ccccc4)c4cc(O)cc(O)c4-c4cc3ccc4O)C(OC3CC(C)(N)C(O)C(C)O3)c3ccc(c(Cl)c3)Oc3cc2cc(c3OC2OC(CO)C(O)C(O)C2OC2CC(C)(NCc3ccc(-c4ccccc4)cc3)C(O)C(C)O2)Oc2ccc(cc2Cl)C1O (stereo not shown) [Example 17, N^4-(4-phenylbenzyl)A82846B, phenethylamide] | – | 1.4 | – | – | – | – | 0.25 | – | – | –
N^4 -(4-(4-CHLOROPHENYL)BENZYL)A82846B, 5-(TERT-BUTOXYCARBONYLAMINO)PENTYLAMIDE, TRIS(TRIFLUOROACETATE) SALT [Example 25] | – | 2.8 | – | – | – | – | 5.0 | – | – | –
N^4 -(4-(4-CHLOROPHENYL)BENZYL)A82846B, 5-AMINOPENTYLAMIDE, TETRA(TRIFLUOROACETATE) SALT [Example 26] | 2 µg/mL | 1.7 | 1 µg/mL | 1 µg/mL | – | 0.5 µg/mL | 0.44 | 2 µg/mL | 0.25 µg/mL | 0.25 µg/mL
N^4 -(4-phenoxybenzyl)A82846B, n-octylamide, trifluoroacetate salt [Example 6] | 4 µg/mL | 1.7 | 1 µg/mL | 1 µg/mL | 4 µg/mL | 1 µg/mL | 0.44 | 2 µg/mL | – | ≤ 0.06 µg/mL
N^4 -(4-phenoxybenzyl)A82846B, tert-butylamide, trifluoroacetate salt [Example 5] | 2 µg/mL | 4 | 2 µg/mL | 4 µg/mL | 8 µg/mL | 4 µg/mL | 0.22 | 2 µg/mL | – | ≤ 0.06 µg/mL
N^4 -(4-phenylbenzyl)A82846B, tert-butylamide, trifluoroacetate salt [Example 4] | 2 µg/mL | 2 | 0.5 µg/mL | 0.125 µg/mL | 2 µg/mL | 1 µg/mL | 0.082 | – | ≤ 0.06 µg/mL | ≤ 0.06 µg/mL
